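In this assay, cells in 96-well plates receive the compound at five concentrations for 48 hours. Endpoints are linearly interpolated between the surrounding concentrations. GI50 is the concentration that inhibits growth by half.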 Active and inactive are the calls of the source. Rule as the data show it: active = GI50 up to about 1.1 µM and inactive = higher.
How the values were obtained:
Test in all cases: growth of human tumour cells (NCI), 48 h
HT-29 = system: HT-29
MOLT-4 = system: MOLT-4
SK-MEL-28 = system: SK-MEL-28
SR = system: SR
ACHN = system: ACHN
HCT-15 = system: HCT-15
RPMI-8226 = system: RPMI-8226
SN12C = system: SN12C
HCT-116 = system: HCT-116
NCI/ADR-RES = system: NCI/ADR-RES
K562 = system: K562
NCI-H460 = system: NCI-H460
TK-10 = system: TK-10
NCI-H522 = system: NCI-H522
CAKI-1 = system: CAKI-1
OVCAR-8 = system: OVCAR-8
SF-268 = system: SF-268
NCI-H226 = system: NCI-H226
RXF 393 = system: RXF 393
DU-145 = system: DU-145

| Compound | GI50 (HT-29) | GI50 (MOLT-4) | GI50 (SK-MEL-28) | GI50 (SR) | GI50 (ACHN) | GI50 (HCT-15) [µM] | GI50 (RPMI-8226) | GI50 (SN12C) | GI50 (HCT-116) | GI50 (NCI/ADR-RES) | GI50 (K562) | GI50 (NCI-H460) | GI50 (TK-10) | GI50 (NCI-H522) | GI50 (CAKI-1) | GI50 (OVCAR-8) | GI50 (SF-268) | GI50 (NCI-H226) | GI50 (RXF 393) | GI50 (DU-145) |
| --- | --- | --- | --- | --- | --- | --- | --- | --- | --- | --- | --- | --- | --- | --- | --- | --- | --- | --- | --- | --- |
| CC(=O)OCC1OC(O/C=C(\CN=[N+]=[N-])C(C)=O)C(OC(C)=O)C(OC(C)=O)C1OC(C)=O (stereo unspecified) | 11.4 µM (inactive) | 2.53 µM (inactive) | 18.9 µM (inactive) | 2.37 µM (inactive) | 3.4 µM (inactive) | 3.94 | 1.74 µM (inactive) | 7.96 µM (inactive) | 3.51 µM (inactive) | 21 µM (inactive) | 5.02 µM (inactive) | 21.6 µM (inactive) | 6.19 µM (inactive) | 1.79 µM (inactive) | 3.01 µM (inactive) | 6.01 µM (inactive) | 21.6 µM (inactive) |  |  |  |
| NC1=NN(c2ccccc2)C2(c3ccncc3C(=O)O)C1C(N)=NN2c1ccccc1 (stereo unspecified) | > 100 µM (inactive) | > 100 µM (inactive) | > 100 µM (inactive) |  | > 100 µM (inactive) | > 100 | > 100 µM (inactive) | > 100 µM (inactive) | > 100 µM (inactive) | > 100 µM (inactive) | > 100 µM (inactive) | > 100 µM (inactive) |  | > 100 µM (inactive) | > 100 µM (inactive) | > 100 µM (inactive) | > 100 µM (inactive) | > 100 µM (inactive) | > 100 µM (inactive) | > 100 µM (inactive) |
| CSC[S+]([O-])C[C@H](CO)NC(=O)/C=C/c1c(C)[nH]c(=O)[nH]c1=O (stereo partly specified) | 1.85 µM (inactive) | 1.92 µM (inactive) | 0.767 µM (active) | 2.04 µM (inactive) | 1.48 µM (inactive) | 1.83 | 1.79 µM (inactive) | 0.776 µM (active) | 1.66 µM (inactive) | 1.27 µM (inactive) | 1.32 µM (inactive) | 0.48 µM (active) | 4.02 µM (inactive) | 0.731 µM (active) | 1.65 µM (inactive) | 1.43 µM (inactive) | 0.277 µM (active) | 0.67 µM (active) | 0.804 µM (active) |  |
| Cc1cnc(Cl)nc1C(C#N)c1nc2ccccc2n1C (stereo unspecified) | 35.9 µM (inactive) | > 100 µM (inactive) | 93.1 µM (inactive) |  | 66.8 µM (inactive) | > 100 | 85.9 µM (inactive) | > 100 µM (inactive) | 23.2 µM (inactive) | 56.1 µM (inactive) |  | 46.1 µM (inactive) | 36 µM (inactive) | 15.1 µM (inactive) | 95.3 µM (inactive) | 38.6 µM (inactive) | 29.9 µM (inactive) | > 100 µM (inactive) | 58.9 µM (inactive) | > 100 µM (inactive) |
| N=C(N)NS(=O)(=O)c1ccc(Nc2c3ccccc3nc3c(C(=O)NC(CO)(CO)CO)cccc23)cc1 | 21.3 µM (inactive) | 2.79 µM (inactive) | 30.5 µM (inactive) | 12.5 µM (inactive) | 11.1 µM (inactive) | 93.8 | 20.1 µM (inactive) | 26.5 µM (inactive) |  | > 100 µM (inactive) | 24.2 µM (inactive) | 2.88 µM (inactive) | 47.3 µM (inactive) | 11.7 µM (inactive) | 34.5 µM (inactive) | 29 µM (inactive) | 19.5 µM (inactive) |  |  | 32.4 µM (inactive) |
| O=C1CCN/C(=N\C(=O)C(F)(F)F)N1CCc1c[nH]c2ccccc12 | > 100 µM (inactive) | > 100 µM (inactive) | > 100 µM (inactive) |  | > 100 µM (inactive) | > 100 | > 100 µM (inactive) | > 100 µM (inactive) | > 100 µM (inactive) | > 100 µM (inactive) | > 100 µM (inactive) | > 100 µM (inactive) | > 100 µM (inactive) | > 100 µM (inactive) | > 100 µM (inactive) | > 100 µM (inactive) | > 100 µM (inactive) | > 100 µM (inactive) | > 100 µM (inactive) | > 100 µM (inactive) |
| CN1CC[C@]23c4c5ccc(O)c4O[C@H]2C(O)CC[C@@]3(O)[C@H]1C5 (stereo partly specified) | > 100 µM (inactive) | > 100 µM (inactive) | > 100 µM (inactive) | > 100 µM (inactive) | > 100 µM (inactive) | > 100 | > 100 µM (inactive) | > 100 µM (inactive) | > 100 µM (inactive) | > 100 µM (inactive) |  |  | > 100 µM (inactive) | > 100 µM (inactive) | > 100 µM (inactive) | > 100 µM (inactive) | > 100 µM (inactive) | > 100 µM (inactive) |  | > 100 µM (inactive) |
| COc1cc(/C=C2\N=C(c3ccccc3)N(c3nc4ccc(Sc5ccccc5)cc4[nH]3)C2=O)ccc1O | 18.4 µM (inactive) | 26.1 µM (inactive) | 21.2 µM (inactive) |  | 26.9 µM (inactive) | 21.9 | 16.7 µM (inactive) | 26.9 µM (inactive) | 21.1 µM (inactive) | 18.7 µM (inactive) | 11.7 µM (inactive) | 19.5 µM (inactive) | 20.7 µM (inactive) | 18.8 µM (inactive) | 23.9 µM (inactive) | 27.6 µM (inactive) | 25.5 µM (inactive) |  | 28.5 µM (inactive) | 35.7 µM (inactive) |
| O=C1CN(c2cccc(Cl)c2)C(=O)CN1NCNN1CC(=O)N(c2cccc(Cl)c2)CC1=O | > 100 µM (inactive) | > 100 µM (inactive) | > 100 µM (inactive) | > 100 µM (inactive) | > 100 µM (inactive) | > 100 | > 100 µM (inactive) | > 100 µM (inactive) | > 100 µM (inactive) |  |  | > 100 µM (inactive) | > 100 µM (inactive) | > 100 µM (inactive) | > 100 µM (inactive) | > 100 µM (inactive) | > 100 µM (inactive) |  | > 100 µM (inactive) | > 100 µM (inactive) |
| CCOC(=O)c1nc2ccccc2nc1Oc1ccc(C(=O)OC)cc1 | > 100 µM (inactive) | 2.87 µM (inactive) | > 100 µM (inactive) |  | > 100 µM (inactive) | > 100 | > 100 µM (inactive) | > 100 µM (inactive) | > 100 µM (inactive) | > 100 µM (inactive) | > 100 µM (inactive) | > 100 µM (inactive) | > 100 µM (inactive) |  | > 100 µM (inactive) | > 100 µM (inactive) | > 100 µM (inactive) | > 100 µM (inactive) | > 100 µM (inactive) | > 100 µM (inactive) |
| COc1cc(C2c3cc4c(cc3[C@@H](Nc3ccccc3)C3COC[C@H]23)OCO4)cc(OC)c1O (stereo partly specified) | 3.06 µM (inactive) | 0.0665 µM (active) | 5.77 µM (inactive) | 0.465 µM (active) | 0.483 µM (active) | 1.12 | 0.631 µM (active) | 1.9 µM (inactive) | 1.41 µM (inactive) | 10.9 µM (inactive) | 1.8 µM (inactive) | 0.148 µM (active) | 7.46 µM (inactive) | 2.2 µM (inactive) |  | 2.82 µM (inactive) | 3.03 µM (inactive) |  |  |  |
| O=C(O)COc1ccc(C(=O)/C(SS/C(C(=O)c2ccc(OCC(=O)O)c(Cl)c2Cl)=C2\C=C(c3ccc(F)cc3)SS2)=C2/C=C(c3ccc(F)cc3)SS2)c(Cl)c1Cl | 26.9 µM (inactive) | 8.67 µM (inactive) | 19.2 µM (inactive) | 3.76 µM (inactive) | 18.6 µM (inactive) | 9.71 | 10.1 µM (inactive) | 14.7 µM (inactive) | 9.29 µM (inactive) |  | 4.22 µM (inactive) | 21.7 µM (inactive) | 37.8 µM (inactive) | 2.38 µM (inactive) | 33.5 µM (inactive) | 14 µM (inactive) | 6.9 µM (inactive) | 15.1 µM (inactive) |  | 26.6 µM (inactive) |
| Nn1c(CCCCCCCCc2nnc(COc3ccc4ccccc4c3O)n2N)nnc1COc1ccc2ccccc2c1O | 25.3 µM (inactive) | 14.9 µM (inactive) | 32.4 µM (inactive) |  | 31.3 µM (inactive) | 22.3 | 22.3 µM (inactive) | 39.3 µM (inactive) | 9.75 µM (inactive) | 17.5 µM (inactive) | 41.7 µM (inactive) | 29 µM (inactive) | 49.2 µM (inactive) | 14.6 µM (inactive) | 18.2 µM (inactive) |  | 29.8 µM (inactive) | 17.9 µM (inactive) | 26.1 µM (inactive) | 33.8 µM (inactive) |
| [O-][n+]1c(-c2ccccc2)oc2ccccc21 | 21.4 µM (inactive) | > 69.7 µM (inactive) | 18.1 µM (inactive) | > 100 µM (inactive) | 15 µM (inactive) | 6.12 | > 22.6 µM (inactive) | 14.4 µM (inactive) | 13.1 µM (inactive) |  | 11.9 µM (inactive) | 4.98 µM (inactive) | 26.6 µM (inactive) | 12 µM (inactive) | > 41.1 µM (inactive) | 15.9 µM (inactive) | 26.9 µM (inactive) | 30.8 µM (inactive) | 21.2 µM (inactive) |  |
| CN1C(=O)C2(Cc3cn(C45CC67SSC(CO)(C(=O)N6C4Nc4ccccc45)N(C)C7=O)c4ccccc34)SSC1(CO)C(=O)N2C (stereo unspecified) | < 0.01 µM (active) | 0.0405 µM (active) | 0.084 µM (active) | < 0.01 µM (active) | < 0.01 µM (active) | < 0.01 | 0.0139 µM (active) | 0.0147 µM (active) | 0.0113 µM (active) | 0.0197 µM (active) | < 0.01 µM (active) | 0.218 µM (active) | 0.0243 µM (active) | < 0.01 µM (active) | < 0.01 µM (active) | 0.0206 µM (active) | 0.0191 µM (active) |  |  | 0.0261 µM (active) |
